Tests used:
[1] = target: T1, Avi-KRAS G12R (1-169) GppNHp/RAF1 RBD-3xFLAG (52-151) (Homo sapiens, UniProt P01116, G12R); assay: Raf1-KRAS G12R-GppNHP disruption HTRF assay (Biological Example 1); type: binding
T1 construct: Avi-KRAS G12R (1-169)
Method in brief: (§1)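 Protein mix, 1 h RT, 700 rpm; reagent mix, 1 h RT, 700 rpm; HTRF read. Buffer Tris pH 7.5/NaCl/MgCl2/BSA/Tween, 10% DMSO. Output % activity, DMSO = 100%.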

[2] = target: T2, Avi-KRAS G12V (1-169) GppNHp/RAF1 RBD-3xFLAG (52-151) (Homo sapiens, UniProt P01116, G12V); assay: Raf1-KRAS G12V-GppNHP disruption HTRF assay (Biological Example 1); type: binding
T2 construct: Avi-KRAS G12V (1-169)
Method in brief: as §1

[3] = test system: GP2d cells (KRAS G12D); assay: Cell-based pERK HTRF assay in GP2d cell (Biological Example 2); details: GP2d (KRAS G12D) cells, pERK HTRF
Method in brief: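 Phospho-ERK in lysed cells was detected by HTRF using Eu cryptate and d2 antibodies, read between 4 and 24 h at room temperature. Prior to lysis, KRAS G12D GP2d cells, seeded the day before in DMEM with 10% FBS, were exposed to compounds for 60 min. Compounds were tested as 9-point half-log curves from 1 μM or 100 nM top, with 0.25% DMSO.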

[4] = test system: SW620 cells (KRAS G12V); assay: Cell-based pERK HTRF assay in SW620 cell (Biological Example 4); details: pERK HTRF
Method in brief: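 SW620 (KRAS G12V) cells seeded at 3×10^4/well in RPMI, 10% FBS, then treated next day for 4 h with a 9-point half-log series from 1 μM top (0.25% DMSO). Lysates analyzed for pERK by HTRF (Eu cryptate/d2 antibodies, 4–24 h at room temperature), excitation 320 nm, emission 615 nm.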

[5] = target: T3, Avi-KRAS WT (1-169) GppNHp/RAF1 RBD-3xFLAG (52-151) (Homo sapiens, UniProt P01116); assay: Raf1-KRAS WT-GppNHP disruption HTRF assay (Biological Example 1); type: binding
T3 construct: Avi-KRAS WT (1-169)
Method in brief: as §1

[6] = target: T4, Avi-KRAS G12D (1-169) GppNHp/RAF1 RBD-3xFLAG (52-151) (Homo sapiens, UniProt P01116, G12D); assay: Raf1-KRAS G12D-GppNHP disruption HTRF assay (Biological Example 1); type: binding
T4 construct: Avi-KRAS G12D (1-169)
Method in brief: as §1

[7] = KRAS G12R, GppNHp-loaded, Table 11
[8] = KRAS G12V, GppNHp-loaded, Table 11
[9] = Homo sapiens, SW-620, SW620 (KRAS G12V) cells
[10] = KRAS WT, GppNHp-loaded, Table 11
[11] = KRAS G12D, GppNHp-loaded, Table 11
[12] = KRAS G12R, GppNHp-loaded, class symbols
[13] = KRAS G12V, GppNHp-loaded, class symbols
[14] = Homo sapiens, SW-620, SW620 (KRAS G12V) cells, class symbols
[15] = KRAS WT, GppNHp-loaded, class symbols
[16] = KRAS G12D, GppNHp-loaded, class symbols

T3 sequence (P01116 1-169 isoform P01116-2): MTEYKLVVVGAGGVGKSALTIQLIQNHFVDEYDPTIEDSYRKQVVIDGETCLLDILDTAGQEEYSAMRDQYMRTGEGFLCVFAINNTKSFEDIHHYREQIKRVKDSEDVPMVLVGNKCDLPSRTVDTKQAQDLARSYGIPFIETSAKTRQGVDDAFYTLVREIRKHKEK
T2 sequence (P01116 1-169 isoform P01116-2 G12V): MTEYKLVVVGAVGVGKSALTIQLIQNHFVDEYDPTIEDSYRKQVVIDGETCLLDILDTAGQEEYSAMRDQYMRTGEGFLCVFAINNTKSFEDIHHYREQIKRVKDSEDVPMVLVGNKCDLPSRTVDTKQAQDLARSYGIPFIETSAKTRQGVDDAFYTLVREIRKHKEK
T1 sequence (P01116 1-169 isoform P01116-2 G12R): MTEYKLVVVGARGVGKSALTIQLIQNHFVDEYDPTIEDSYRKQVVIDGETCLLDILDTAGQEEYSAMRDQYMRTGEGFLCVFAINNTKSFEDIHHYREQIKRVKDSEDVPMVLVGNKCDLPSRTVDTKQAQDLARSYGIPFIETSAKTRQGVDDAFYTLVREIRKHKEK
T4 sequence (P01116 1-169 isoform P01116-2 G12D): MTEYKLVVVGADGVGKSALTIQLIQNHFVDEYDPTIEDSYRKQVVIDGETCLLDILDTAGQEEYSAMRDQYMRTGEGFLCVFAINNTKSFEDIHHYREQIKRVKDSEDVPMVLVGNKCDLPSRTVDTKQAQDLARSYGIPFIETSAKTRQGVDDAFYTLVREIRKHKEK

IC50 [1, 7] [µM]	IC50 [2, 8] [µM]	IC50 ([3]; GP2d) [µM]	IC50 [4, 9] [µM]	IC50 [5, 10] [µM]	IC50 [6, 11] [µM]	IC50 [1, 12] [µM]	IC50 [2, 13] [µM]	IC50 ([3]; GP2d, class symbols) [µM]	IC50 [4, 14] [µM]	IC50 [5, 15] [µM]	IC50 [6, 16] [µM]	Structure (SMILES)	further results
						< 0.1	< 0.1			< 0.1	< 0.1	CCN(c1nc(OC[C@@]23CCCN2C[C@H](F)C3)nc2c(F)c(-c3ccc(F)c4sc(N)c(C#N)c34)c(C(F)(F)F)cc12)[C@H]1CCN(C(=O)OC2CC(F)C2)C1 (stereo partly drawn) [Compound 787]	IC50 ([3]; class symbols): < 0.1 µM; IC50 ([4]; SW620 (KRAS G12V) cells, class symbols): < 0.1 µM
						< 0.1	< 0.1	< 0.1	< 0.1	< 0.1	< 0.1	CCN(c1nc(OC[C@@]23CCCN2C[C@H](F)C3)nc2c(F)c(-c3ccc(F)c4sc(N)c(C#N)c34)c(C(F)(F)F)cc12)[C@H]1C[C@H]2CCN(C)C(=O)N2C1 (atropisomer, axis not shown) [Compound 666]	
		< 0.1	< 0.1									CN(c1nc(OC[C@@]23CCCN2C[C@H](F)C3)nc2c(F)c(-c3ccc(F)c4sc(N)c(C#N)c34)c(C(F)(F)F)cc12)[C@@H]1CC(=O)N2CCC[C@H]12 [Compound 479]	IC50 ([1]; KRAS G12R-GppNHp/RAF1 RBD HTRF): 0.1 to 1 µM; IC50 ([2]; KRAS G12V-GppNHp/RAF1 RBD HTRF): 0.1 to 1 µM; IC50 ([5]; KRAS WT-GppNHp/RAF1 RBD HTRF): 0.1 to 1 µM; IC50 ([6]; KRAS G12D-GppNHp/RAF1 RBD HTRF): 0.1 to 1 µM
						< 0.1	< 0.1	< 0.1	< 0.1	< 0.1	< 0.1	CCN(c1nc(OC[C@@]23CCCN2C[C@H](F)C3)nc2c(F)c(-c3ccc(F)c4sc(N)c(C#N)c34)c(C(F)(F)F)cc12)[C@H]1CCN(C(=O)c2ccncn2)C1 (atropisomer, axis not shown) [Compound 730]	
						< 0.1	< 0.1	< 0.1	< 0.1	< 0.1	< 0.1	CCN(c1nc(OC[C@@]23CCCN2C[C@H](F)C3)nc2c(F)c(-c3ccc(F)c4sc(N)c(C#N)c34)c(C(F)(F)F)cc12)[C@H]1CCN(C(=O)C2CCN(C(C)=O)CC2)C1 (atropisomer, axis not shown) [Compound 575]	

Second part, the compound before the results:

Structure (SMILES)	IC50 [1, 7] [µM]	IC50 [2, 8] [µM]	IC50 ([3]; GP2d) [µM]	IC50 [4, 9] [µM]	IC50 [5, 10] [µM]	IC50 [6, 11] [µM]	IC50 [1, 12] [µM]	IC50 [2, 13] [µM]	IC50 ([3]; GP2d, class symbols) [µM]	IC50 [4, 14] [µM]	IC50 [5, 15] [µM]	IC50 [6, 16] [µM]	further results
C[C@H]1C[C@H](O)CCN1c1nc(OC[C@@]23CCCN2C[C@H](F)C3)nc2c(F)c(-c3ccc(F)c4sc(N)c(C#N)c34)c(C(F)(F)F)cc12 [Compound 246]	0.1 to 1	0.1 to 1	< 0.1	< 0.1	0.1 to 1	0.1 to 1							
CN(c1nc(OC[C@@]23CCCN2C[C@H](F)C3)nc2c(F)c(-c3ccc(F)c4sc(N)c(C#N)c34)c(C(F)(F)F)cc12)C1CCOCC1 [Compound 264]	0.1 to 1	1 to 10	< 0.1	0.1 to 1	0.1 to 1	0.1 to 1							
N#Cc1c(N)sc2c(F)ccc(-c3c(C(F)(F)F)cc4c(N5CCO[C@@H]6C[C@@H]65)nc(OC[C@@]56CCCN5C[C@H](F)C6)nc4c3F)c12 [Compound 411]			< 0.1	< 0.1									IC50 ([1]; KRAS G12R-GppNHp/RAF1 RBD HTRF): 0.1 to 1 µM; IC50 ([2]; KRAS G12V-GppNHp/RAF1 RBD HTRF): 0.1 to 1 µM; IC50 ([5]; KRAS WT-GppNHp/RAF1 RBD HTRF): 0.1 to 1 µM; IC50 ([6]; KRAS G12D-GppNHp/RAF1 RBD HTRF): 0.1 to 1 µM
CCN(c1nc(OC[C@@]23CCCN2C[C@H](F)C3)nc2c(F)c(-c3ccc(F)c4sc(N)c(C#N)c34)c(C(F)(F)F)cc12)C1CCN(C(=O)N2C3COCC2C3)C1 (stereo partly drawn) [Compound 652]							< 0.1	< 0.1	< 0.1	< 0.1	< 0.1	< 0.1	
N#Cc1c(N)sc2c(F)ccc(-c3c(C(F)(F)F)cc4c(N5CC(O)C5)nc(OC[C@@]56CCCN5C[C@H](F)C6)nc4c3F)c12 [Compound 215]	0.1 to 1	0.1 to 1	< 0.1	0.1 to 1	0.1 to 1	0.1 to 1							
